Assay [1] addresses T1, Rac GTPase-activating protein 1 (Homo sapiens, UniProt Q9H0H5).
T1 sequence (Q9H0H5 whole entry): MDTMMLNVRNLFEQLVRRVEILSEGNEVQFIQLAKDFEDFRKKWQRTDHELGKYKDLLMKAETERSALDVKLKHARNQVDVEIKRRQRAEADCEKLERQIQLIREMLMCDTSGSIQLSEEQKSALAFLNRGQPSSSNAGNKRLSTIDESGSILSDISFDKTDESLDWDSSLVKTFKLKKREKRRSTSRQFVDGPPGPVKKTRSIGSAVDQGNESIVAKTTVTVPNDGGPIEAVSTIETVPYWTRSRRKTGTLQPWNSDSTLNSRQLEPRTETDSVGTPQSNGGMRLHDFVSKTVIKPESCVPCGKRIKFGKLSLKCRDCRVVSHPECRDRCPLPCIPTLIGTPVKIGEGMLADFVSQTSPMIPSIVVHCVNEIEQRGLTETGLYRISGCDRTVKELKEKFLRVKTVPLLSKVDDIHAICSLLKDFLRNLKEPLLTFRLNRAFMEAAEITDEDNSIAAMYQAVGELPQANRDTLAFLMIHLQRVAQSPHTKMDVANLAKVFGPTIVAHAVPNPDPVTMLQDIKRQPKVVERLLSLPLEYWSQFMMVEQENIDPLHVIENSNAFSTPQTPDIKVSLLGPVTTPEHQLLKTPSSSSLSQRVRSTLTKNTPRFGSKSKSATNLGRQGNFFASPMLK
The assay can be described thus: blockers of MgcRacGAP-driven Rac1 GTP hydrolysis – biochemical, ADP Hunter fluorescence, primary and confirmatory, confirmation (AID 624330). Format: functional.

Assay [2] is described as follows: cells. Format: functional.
The nature of assay [3]: cells. The assay is classed as functional, cell-based.
Assay [4] in a line: cells. Format: functional, cell-based. The source holds these as a separate data set.
The target in assay [5] is T2, Corticotropin-releasing factor receptor 2/Corticotropin-releasing factor-binding protein (Homo sapiens, UniProt P24387+Q13324).
T2 sequence (Q13324 whole entry): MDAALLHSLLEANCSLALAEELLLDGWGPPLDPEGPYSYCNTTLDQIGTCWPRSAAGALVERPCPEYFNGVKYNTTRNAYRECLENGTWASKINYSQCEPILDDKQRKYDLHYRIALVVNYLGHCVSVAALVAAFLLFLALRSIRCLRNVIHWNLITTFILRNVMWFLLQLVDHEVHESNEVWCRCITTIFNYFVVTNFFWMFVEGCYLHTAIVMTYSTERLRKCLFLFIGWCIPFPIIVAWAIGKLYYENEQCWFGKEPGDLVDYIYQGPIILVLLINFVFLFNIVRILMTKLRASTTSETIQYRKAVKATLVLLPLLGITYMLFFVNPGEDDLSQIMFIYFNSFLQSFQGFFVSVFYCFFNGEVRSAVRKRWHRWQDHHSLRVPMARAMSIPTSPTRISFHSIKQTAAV
T2 sequence (P24387 whole entry): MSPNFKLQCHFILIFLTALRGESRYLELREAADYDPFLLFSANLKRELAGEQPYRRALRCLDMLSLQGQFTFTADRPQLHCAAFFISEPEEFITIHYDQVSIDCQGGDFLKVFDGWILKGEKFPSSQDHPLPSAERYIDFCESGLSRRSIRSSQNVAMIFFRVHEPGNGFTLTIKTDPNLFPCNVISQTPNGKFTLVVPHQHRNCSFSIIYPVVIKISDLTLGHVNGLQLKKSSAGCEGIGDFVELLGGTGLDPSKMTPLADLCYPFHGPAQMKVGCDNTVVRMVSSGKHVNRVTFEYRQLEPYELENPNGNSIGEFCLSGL
Description: Dose Response confirmation of uHTS hits for small molecule antagonists of the CRF-binding protein and CRF-R2 receptor complex. The assay is classed as functional. The conditions noted are these: read-out: IC50_Mean.

Assay [6] addresses T2, Corticotropin-releasing factor receptor 2/Corticotropin-releasing factor-binding protein. Description: activators of CRF receptor 2 with binding protein – uHTS hits, confirmation (AID 602473). Format: functional. The conditions noted are these: read-out: EC50_Mean.
Assay [7] in a line: viability of uninfected HEp-2 cells – cell-based, HTS, cytotoxicity control for RSV inhibitor project, dose response (AID 2410). Format: functional. The conditions noted are these: human respiratory syncytial virus.
For assay [8], the system named is SN12K1. The assay can be described thus: cells. The assay is classed as functional. The conditions noted are these: Homo sapiens.
The test system of assay [9] is P388/ADR. Description: cells. The note with it: Mus musculus. Format: functional.
The subject of assay [10] is P388. The assay can be described thus: cells. Format: functional. The conditions noted are these: Mus musculus.
Assay [11] deals with T3, Streptokinase A (Streptococcus pyogenes serotype M1, UniProt P10520).
T3 sequence (P10520 whole entry): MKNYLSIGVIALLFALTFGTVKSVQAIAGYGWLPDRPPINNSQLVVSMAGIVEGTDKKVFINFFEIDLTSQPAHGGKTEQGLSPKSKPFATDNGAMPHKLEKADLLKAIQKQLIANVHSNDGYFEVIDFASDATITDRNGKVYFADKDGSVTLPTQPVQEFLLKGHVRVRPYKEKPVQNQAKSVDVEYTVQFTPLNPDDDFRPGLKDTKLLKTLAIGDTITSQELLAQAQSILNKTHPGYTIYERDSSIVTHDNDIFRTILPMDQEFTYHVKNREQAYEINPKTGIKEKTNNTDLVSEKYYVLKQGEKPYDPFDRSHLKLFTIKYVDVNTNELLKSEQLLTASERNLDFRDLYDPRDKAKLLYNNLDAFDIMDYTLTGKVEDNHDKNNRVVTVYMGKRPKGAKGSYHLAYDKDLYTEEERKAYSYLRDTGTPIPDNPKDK
Description: viability-normalized secreted streptokinase activity reduction – plasminogen activation absorbance, OD405, dose response (AID 1914).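 Also: secreted streptokinase activity via plasminogen activation per viability signal from cell pellet.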 Format: functional, Streptococcus pyogenes M1 GAS.

Assay [12] relates to Streptococcus sp. 'group A'. Description: Streptococcus pyogenes SK(-)GAS viability under kanamycin – luminescence, BacTiterGlo, confirmation, counter-screen for streptokinase expression inhibitor project, dose response (AID 1900). Format: functional, organism-based.
Assay [13] has as its system INS1. Description: INS-1E survival protection against cytokine death – cell-based, luminescence, retest, dose response (AID 449756).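 Also: cell death triggered by IL-1 beta plus TNF-alpha plus IFN-gamma mixture; protective hits raise ATP signal compared with cytokine alone wells.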 The assay is classed as functional. The conditions noted are these: Rattus norvegicus.
The test system of assay [14] is Streptococcus. The assay can be described thus: GAS UMAA2166 growth inhibition – luminescence, BacTiterGlo, counter-screen for streptokinase expression inhibitor project, dose response (AID 1915).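 Also: potency for reduction of bacterial viability or growth.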 Format: functional, organism-based.

Consider 36 compounds from ChEMBL document CHEMBL1201862, “PubChem BioAssay data set” (2004).

Activity calls are given as the source filed them.

Take `COc1cccc(CNc2ccc3c(c2)ncn3C)c1OC`: in [1], the IC50 was 99.4 µM (active).
On to `O=C(c1cc2ccccc2o1)N1CCN(Cc2ccccc2)CC1`, for which, in assay [2], the IC50 is 18.8 µM (active).
As for `COc1ccc(N(CC(=O)Nc2cc(OC)ccc2OC)S(=O)(=O)c2c(C)noc2C)cc1`, the EC50 in assay [3] and in assay [4] was > 350 µM (not active) each time.
In the case of `Cc1nnc(-c2ccccc2)nc1N(C)C`, the EC50 in [3] and in [4] was > 350 µM (not active) each time.
For the compound `CCOC(=O)COc1ccc2c(=O)c(-c3ccccc3OC)coc2c1`, the IC50 in [2] was 1.45 µM (active).
Take `O=C(O)c1ccc(NS(=O)(=O)/C=C/c2ccccc2)cc1O`: the IC50 in assay [2] is 16.6 µM (active).
In the case of `CN(c1ccc(O)cc1)c1nc(-c2cccs2)cs1`, the IC50 in [1] was 70.4 µM (active).
`Cn1c(CCNC(=O)c2ccco2)nc2cc(NC(=O)c3ccco3)ccc21`: in assay [5], the IC50 is > 47.1 µM (inactive). Besides, the EC50 in assay [6] is > 53 µM (inactive).
Regarding `Cc1ccccc1NC(=O)c1ccccc1O`, the results for the EC50 in assay [3] and in [4] were 50.3 µM (active) and > 350 µM (not active), respectively.
As for `Cc1ccc(S(=O)(=O)N2CCOC23CCN(C(=O)c2cc(Cl)ccc2Cl)CC3)cc1`, the CC50 in assay [7] was 16.3 µM (active). For the same compound, the EC50 in [3] and in assay [4] was > 350 µM (not active) in each case.
On to `CN1CCCN(Cc2ccccc2C(F)(F)F)CC1`, for which, in assay [1], the IC50 was 83.3 µM (active).
As to `Cc1cccc(C(=O)OC(C)CN2CCCC2)c1` (stereo unspecified), the EC50 in assay [3] and in [4] was > 350 µM (not active) in each case.
Turning to `Cc1cccnc1NC(=O)c1c(O)c2ccccc2n(C)c1=O`, in assay [2], the IC50 was 25 µM (active).
Regarding `CCc1ccccc1N=C(S)NCC1CCN(c2ccc(OC)cc2)C1` (stereo unspecified), in [1], the IC50 was 43.3 µM (active).
Still for that read-out and setting: then `COc1cc(/C=C/C(=O)OCC(=O)N2CC3(C)CC2CC(C)(C)C3)ccc1O` (stereo unspecified), with 49.6 µM (active).
Turning to `COc1cc2[nH]c(Cl)c([N+](=O)[O-])c2cc1OC`, the IC50 in assay [2] is 23.1 µM (active).
On to `COc1ccc(CC(=O)N2CCN(C(=O)Cc3ccc(OC)cc3)CC2)cc1`, for which the EC50 in assay [3] and in [4] was > 350 µM (not active) in each case.
With `CCOc1ccc(CN2CCN(S(=O)(=O)c3ccc(NC(C)=O)cc3)CC2)cc1`, the IC50 in assay [1] is 221 µM (active).
Consider `[N-]=[N+]=CC(=O)CCC(N)C(=O)O` (stereo unspecified), for which the GI50 in [8] was 0.871 µM (active); in assay [9], 0.112 µM (active); in assay [10], 0.0991 µM (active).
Regarding `CC1=CC(O)C(O)C2(C)C1CC1OC(=O)C(O)C3C(C)C(O)C4(O)OCC13C42` (stereo unspecified), the results for the GI50 in assay [8], in assay [9] and in [10] were 3.63 µM (inactive), > 625 µM (inactive) and > 29 µM (inactive), respectively.
As for `COc1ccc(C2CC(c3ccc(Br)cc3)=NN2C(=O)CCC(=O)O)cc1OC` (stereo unspecified), the IC50 in assay [5] is > 47.1 µM (inactive). In addition, the EC50 in assay [6] was > 53 µM (inactive).
Regarding `CCNC(=O)C(C)C1CCC2(C)C=CC(=O)C(C)=C2C1O` (stereo unspecified), the GI50 in assay [8], in assay [9] and in assay [10] was > 100 µM (inactive) throughout.
`O=C(N/N=C/c1cccs1)c1cncc(Br)c1`: the IC50 in assay [2] is 10.7 µM (active).
`O=NN(CCCl)C(=O)Nc1ccc(Cl)c(Cl)c1`: the GI50 in assay [8] was 84.9 µM (inactive); in assay [9], 65 µM (inactive); in assay [10] it was 49.1 µM (inactive).
In the case of `O=C(NCCCCCCNC(=O)n1cc(F)c(=O)[nH]c1=O)NCCCOCCOCCOCCOCCOCCOCCOCCOCCOCCOCCOCCOCCOCCOCCOCCOCCOCCOCCOCCOCCOCCCNC(=O)C(O)C(O)C(O)C(O)CO` (stereo unspecified), the GI50 is 6.15 µM (inactive) in [8], 0.492 µM (active) in assay [9] and 0.879 µM (active) in assay [10].
`C/C(=N\NC(=[Se])N(C)C)c1ccccn1`: the GI50 in assay [8], in [9] and in assay [10] was < 0.01 µM (active) throughout.
Consider `O=C1OC2CC=CC1C2` (stereo unspecified), for which the GI50 in [8], in assay [9] and in assay [10] was > 100 µM (inactive) in each case.
Turning to `CC(C)[C@](O)(C(=O)OCC1CC[N+]2([O-])CC[C@@H](O)C12)[C@H](C)O` (stereo partly specified), the GI50 in assay [8] is > 375 µM (inactive); in assay [9] it was > 375 µM (inactive); in assay [10], > 364 µM (inactive).
`CC[C@]12C=CCN3CC[C@@]4(c5ccc(OC)cc5N(C)[C@H]4[C@@](O)(C(=O)OC)[C@@H]1OC(C)=O)[C@@H]32`: the GI50 in [8] is 193 µM (inactive); in assay [9], 95.3 µM (inactive); in assay [10], 14.5 µM (inactive).
`CCOC(=O)CN1CCS/C1=N/C#N`: the GI50 in assay [8], in [9] and in assay [10] was > 100 µM (inactive) throughout.
With `COc1cccc2c1[C@H]1CO[C@H]3C4C[C@H](C(=O)O)C([C@@H](C2)N13)N4C` (stereo partly specified), the GI50 in assay [8] was 0.483 µM (active); in assay [9], 0.0906 µM (active); in [10], 1.08 µM (active).
Consider `CCOc1cc(/C=N/NC(=O)NN(C)c2ncc(C(F)(F)F)cc2Cl)ccc1O`, for which the IC50 in assay [1] is 88.4 µM (active).
Regarding `Cc1cc(C)nc(N/N=C/c2cc(Br)ccc2O)n1`, the EC50 in assay [11] was > 150 µM (not active); in [12], 8.51 µM (active); in [3], > 350 µM (not active); in assay [4], 7.66 µM (active); in assay [14] it was 146 µM (active). Besides, the AC50 in assay [13] was 3.35 µM (active).
With `Cc1ccccc1-c1nc2ccccc2c(=O)n1/N=C/c1ccccc1[N+](=O)[O-]`, the EC50 in assay [3] and in assay [4] was > 350 µM (not active) each time.
As to `CCN(CC)CCNC1=CC(=O)OC12CCCCC2`, the EC50 in assay [3] and in assay [4] was > 350 µM (not active) each time.
Turning to `Nc1ncnc2c1nnn2C1OC(CO)C(O)C1O` (stereo unspecified), the GI50 in [8] was 1.71 µM (inactive); in assay [9], 8.43 µM (inactive); in assay [10], 3.42 µM (inactive).
